Experiments:
[1] = molecular target: T1, 5-hydroxytryptamine receptor 2C (Sus scrofa, UniProt K7GSR7)
T1 sequence (K7GSR7 whole entry): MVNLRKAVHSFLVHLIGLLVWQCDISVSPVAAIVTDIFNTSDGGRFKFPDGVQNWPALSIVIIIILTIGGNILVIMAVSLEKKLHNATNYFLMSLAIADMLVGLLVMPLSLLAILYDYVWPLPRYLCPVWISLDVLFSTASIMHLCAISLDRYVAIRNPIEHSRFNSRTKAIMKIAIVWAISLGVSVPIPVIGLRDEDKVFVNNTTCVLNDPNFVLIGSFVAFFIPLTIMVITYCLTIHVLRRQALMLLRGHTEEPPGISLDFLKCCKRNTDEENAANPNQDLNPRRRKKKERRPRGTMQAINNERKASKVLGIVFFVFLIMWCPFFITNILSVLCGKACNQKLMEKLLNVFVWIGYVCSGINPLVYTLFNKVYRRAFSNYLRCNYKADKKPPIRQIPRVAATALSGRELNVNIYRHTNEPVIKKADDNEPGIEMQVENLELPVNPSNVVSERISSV

[2] = molecular target: 5-hydroxytryptamine receptor 2A (Rattus norvegicus, UniProt P14842)
Chain of 5-hydroxytryptamine receptor 2A (P14842 whole entry): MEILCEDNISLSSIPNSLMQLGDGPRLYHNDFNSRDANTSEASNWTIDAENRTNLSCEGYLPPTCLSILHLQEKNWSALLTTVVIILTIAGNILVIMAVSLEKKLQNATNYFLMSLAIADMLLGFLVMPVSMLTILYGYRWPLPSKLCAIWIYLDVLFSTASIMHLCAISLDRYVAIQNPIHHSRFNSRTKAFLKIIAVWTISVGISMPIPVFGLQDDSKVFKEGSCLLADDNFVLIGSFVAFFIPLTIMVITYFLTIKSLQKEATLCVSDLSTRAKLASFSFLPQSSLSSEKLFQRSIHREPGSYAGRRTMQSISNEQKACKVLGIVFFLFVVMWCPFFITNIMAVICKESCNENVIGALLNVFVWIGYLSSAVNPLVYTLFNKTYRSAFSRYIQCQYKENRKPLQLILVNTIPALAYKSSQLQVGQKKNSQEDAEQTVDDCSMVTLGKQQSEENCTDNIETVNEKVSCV

[3] = molecular target: 5-hydroxytryptamine receptor 2B (Homo sapiens, UniProt P41595)
Chain of 5-hydroxytryptamine receptor 2B (P41595 whole entry): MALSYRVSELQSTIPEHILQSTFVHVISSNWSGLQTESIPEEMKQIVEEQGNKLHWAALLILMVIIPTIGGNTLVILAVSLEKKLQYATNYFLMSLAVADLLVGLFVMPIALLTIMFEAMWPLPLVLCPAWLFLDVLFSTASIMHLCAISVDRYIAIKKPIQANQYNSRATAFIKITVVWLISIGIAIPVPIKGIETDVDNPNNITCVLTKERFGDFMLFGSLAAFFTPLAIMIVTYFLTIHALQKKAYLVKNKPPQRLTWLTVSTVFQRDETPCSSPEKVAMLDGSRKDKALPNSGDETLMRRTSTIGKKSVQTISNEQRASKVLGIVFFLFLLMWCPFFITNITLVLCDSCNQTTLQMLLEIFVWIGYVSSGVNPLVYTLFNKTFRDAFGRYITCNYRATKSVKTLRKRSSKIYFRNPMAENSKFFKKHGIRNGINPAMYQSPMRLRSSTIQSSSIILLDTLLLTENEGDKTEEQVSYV

SMILES | Ki [1] | Ki [2] | Ki [3]
COc1ccc2cccc(CCNC(C)=O)c2c1 [S 20098] | 407 nM | > 10000 nM | 257 nM
COc1ccc2[nH]cc(CCNC(C)=O)c2c1 | > 10000 nM | > 10000 nM | 

Source: BindingDB's records for doi:10.1124/jpet.103.051797 (Institut De Recherches Servier, 2003)
